From paper PMC11855827, “High-Throughput Screening of Five Compound Libraries for Anthelmintic Activity and Toxicity Leads to the Discovery of Two Flavonoid Compounds” (International Journal of Molecular Sciences, 2025)
“And” between values parts separate entries of the source, which are not always exact repeats. Equal values may be shown once. Read-outs that look alike come from different tables or passages of the source.

Test system: C. elegans
[1] = Table S2, C. elegans SS assay, 110 μM, 0 h, averages of 4 data points
[2] = Table S2, C. elegans SS assay, 110 μM, 24 h, averages of 4 data points

| Molecule | Percentage of motility inhibition 0 h [1] | Percentage of motility inhibition 24 h [2] | Percentage of motility inhibition 0 h (110 µM) [%] | Percentage of motility inhibition 24 h (110 µM) [%] |
| --- | --- | --- | --- | --- |
| C[C@H](CCC(=O)NCC(=O)[O-])[C@H]1CC[C@H]2[C@@H]3[C@H](O)C[C@@H]4C[C@H](O)CC[C@]4(C)[C@H]3C[C@H](O)[C@]12C.[Na+] [Glycocholic acid (sodium)] | 0% | 0% |  |  |
| CN[C@@H]1[C@@H](O[C@H]2O[C@H](CO)[C@@H](N)[C@H](O)[C@H]2O)OC2C[C@@H](N)[C@@H](O[C@H]3[C@H](O)[C@@H](O)[C@H](N)C[C@@H]3N)OC2[C@@H]1O (stereo partly drawn) [Apramycin (sulfate)] | 29% | 2% |  |  |
| CC(C)(CO)[C@@H](O)C(=O)NCCC(=O)[O-].CC(C)(CO)[C@@H](O)C(=O)NCCC(=O)[O-].[Ca+2] [D-Pantothenic acid (hemicalcium salt)] | 48% | 1% |  |  |
| COc1cc(-c2coc3c([C@@H]4O[C@H](CO)[C@@H](O)[C@H](O)[C@H]4O)c(O)ccc3c2=O)ccc1O [3'‐Methoxypuerarin] | 11% | 51% |  |  |
| C[N+](C)(C)CCO.O=C([O-])C(O)C(O)C(=O)O (stereo not drawn) [Choline (bitartrate)] | 0% | 0% |  |  |
| CC1=C[C@@H]2C(=O)[C@]3(C=C(C)[C@H](O)[C@@]3(O)[C@@H]1O)[C@H](C)C[C@@H]1[C@H]2C1(C)C [20-Deoxyingenol] | 0% | 21% |  |  |
| Handelin | 0% | 14% |  |  |
| CN1C[C@H](O)C[C@H]1C(=O)O [4‐Hydroxyhygric acid] | 21% | 0% |  |  |
| COc1ccc(-c2cc(=O)c3c(OC)cc(OC)c(OC)c3o2)cc1 [6‐Demethoxytangeretin] | 31% | 8% |  |  |
| CC[C@@]1(O)C(=O)OCc2c1cc1n(c2=O)Cc2cc3c(CN(C)C)c(O)ccc3nc2-1.Cl [Topotecan (Hydrochloride)] | 5% | 3% |  |  |
| (−)-Myrtenal | 21% | 14% |  |  |
| O=C1C[C@@H](c2ccc(O)cc2)Oc2cc(O)ccc21 [Liquiriti genin] | 44% | 28% |  |  |
| NC(=O)c1ccc[n+]([O-])c1 [Nicotinamide N‐oxide] |  |  | 14 | 32 |
| COc1ccc(-c2oc3c4c(cc(O)c3c(=O)c2O)OC(C)(C)CC4)cc1 [β‐Anhydroicaritin] | 5% | 16% |  |  |
| CC(C)=C[C@H]1C[C@](C)(O)[C@@H]2[C@H]3CC[C@@H]4[C@@]5(C)CC[C@H](O[C@@H]6OC[C@H](O)[C@H](O[C@@H]7O[C@H](CO[C@@H]8O[C@H](CO)[C@@H](O)[C@H](O)[C@H]8O)[C@@H](O)[C@H](O)[C@H]7O[C@@H]7OC[C@@H](O)[C@H](O)[C@H]7O)[C@H]6O[C@@H]6O[C@@H](C)[C@H](O)[C@@H](O)[C@H]6O)C(C)(C)[C@@H]5CC[C@@]4(C)[C@@]34CO[C@@]2(C4)O1 [Jujuboside A] |  |  | 0 | 0 |
| C=C1C(=O)O[C@@H]2/C=C(\C)[C@@H](OC(C)=O)C/C=C(\COC(C)=O)C[C@@H](OC(=O)/C(C)=C/CO)[C@@H]12 [Eupalinolide B] |  |  | 0 | 0 |
| COc1ccc(-c2cc(=O)c3c(O)cc(O[C@@H]4O[C@H](CO)[C@@H](O)[C@H](O)[C@H]4O)cc3o2)cc1 [Tilianin] | 13% | 3% |  |  |
| COc1cc2c(cc1OC)-c1cc3ccc4c(c3c[n+]1CC2)OCO4.[Cl-] [Epiberberine (chloride)] | 22% | 8% |  |  |
| C[C@H]1CC[C@@]2(O)C(C)(C)[C@@H]3CC[C@@]2(C)[C@H]1C3 [Patchouli alcohol] | 24% | 35% |  |  |
| C=C(C)[C@@H]1CC[C@]2(C=O)CC[C@]3(C)[C@H](CC[C@@H]4[C@@]5(C)CC[C@H](O)C(C)(C)[C@@H]5CC[C@]43C)[C@@H]12 [Betulinaldehyde] | 7% and 0% | 3% and 9% |  |  |
| O=C(O)[C@H]1O[C@@H](O[C@H]2[C@H](Oc3cc(O)c4c(=O)cc(-c5ccc(O)c(O)c5)oc4c3)O[C@H](C(=O)O)[C@@H](O)[C@@H]2O)[C@H](O)[C@@H](O)[C@@H]1O [Luteolin 7‐diglucuronide] | 20% | 7% |  |  |
| C[C@H]1CCC2N(C1)C[C@H]1C3CC4[C@@H](CC(=O)C5C[C@@H](O)CC[C@@]54C)C3CCC1[C@]2(C)O (stereo partly drawn) [Peiminine] | 0% | 19% |  |  |

| Molecule | Percentage of motility inhibition 0 h [1] | Percentage of motility inhibition 24 h [2] | Percentage of motility inhibition 0 h (110 µM) [%] | Percentage of motility inhibition 24 h (110 µM) [%] |
| --- | --- | --- | --- | --- |
| CCC1=C[C@@H]2CN3CCc4c([nH]c5ccccc45)[C@@](C(=O)OC)(C2)[C@@H]13 [Catharanthine] | 0% | 0% |  |  |
| C=C1[C@@H]2CC[C@H]3[C@]4(C)C[C@H](O[C@@H]5O[C@H](CO)[C@@H](OS(=O)(=O)O)[C@H](OS(=O)(=O)O)[C@H]5OC(=O)CC(C)C)CC(C(=O)[O-])(C(=O)[O-])[C@H]4CC[C@]3(C2)[C@H]1O.[K+].[K+] [Carboxyatractyloside (dipotassium)] | 15% | 18% |  |  |
| CC(=O)O[C@@H]1C[C@@]23C[C@@]24CC[C@H](O[C@@H]2OC[C@H](O)[C@H](O)[C@H]2O)C(C)(C)[C@@H]4CC[C@H]3[C@]2(C)[C@@H](O)[C@]34O[C@H](C[C@@H](C)[C@@H]3[C@@]12C)[C@@H](C(C)(C)O)O4 [Cimiracemoside D] | 0% | 0% |  |  |
| Evodiamine | 0% | 23% |  |  |
| C[C@@H]1CC[C@H]2[C@@H](C)C(=O)O[C@@H]3O[C@@]4(C)CC[C@@H]1[C@]32OO4 [Artemisinin] |  | 9% and 0% |  |  |
| CC(=O)c1ccccc1O [2'‐Hydroxyacetophenone] | 0% | 1% |  |  |
| C[C@@H]1O[C@@H](OC[C@H]2O[C@@H](Oc3c(-c4ccc(O)c(O)c4)oc4cc(O)cc(O)c4c3=O)[C@H](O)[C@@H](O)[C@@H]2O)[C@H](O)[C@H](O)[C@H]1O.O [Rutin (hydrate)] | 2% | 8% |  |  |
| c1cc2c(c3c1C[C@H]1c4cc5c(cc4CCN1C3)OCO5)OCO2 (racemic) [(±)‐Stylopine] | 0% | 31% |  |  |
| O=C(/C=C/c1ccc(O)c(O)c1)c1ccc(O)c(O)c1O [Okanin] | 9% | 31% |  |  |
| C/C=C(/C)C(=O)O[C@H]1C(C)=C[C@]23C(=O)[C@@H](C=C4COC(C)(C)O[C@H]4[C@]12O)[C@H]1[C@@H](C[C@H]3C)C1(C)C [Ingenol-5,20-acetonide-3-O-angelate] | 0% | 0% |  |  |
| C=C(CC[C@@H](C(=O)O)[C@H]1CC[C@@]2(C)C3=CC[C@H]4C(C)(C)[C@@H](OC(C)=O)CC[C@]4(C)C3=CC[C@]12C)C(C)C [Dehydroeburicoic acid monoacetate] | 20% | 24% |  |  |
| COc1c(C(C)C)cc2c(c1O)C1(C(=O)O)CCCC(C)(C)C1CC2 (stereo not drawn) [12-O-Methylcarnosic acid] | 5% | 11% |  |  |
| C[C@H]1[C@H](C)CC[C@]2(C(=O)O)CC[C@]3(C)C(=CC[C@@H]4[C@@]5(C)CC[C@H](O)C(C)(C)[C@@H]5CC[C@]43C)[C@H]12 [3-Epiursolic Acid] | 3% | 18% |  |  |
| COc1cc2c(cc1OC)[C@@H]1Cc3ccc(OC)c(OC)c3C[N@@+]1([O-])CC2 [(‐)‐Corynoxidine] | 19% | 10% |  |  |
| CC1=CC[C@@H](C(C)(C)O)CC1 [(-)-α-Terpineol] | 15% | 17% |  |  |
| C=C(C)[C@@H]1CC[C@]2(C(=O)O)CC[C@]3(C)[C@H](CC[C@@H]4[C@@]5(C)CC[C@H](O)[C@@](C)(CO)[C@@H]5CC[C@]43C)[C@@H]12 [23-Hydroxybetulinic acid] | 13% | 5% |  |  |
| CC1(C)CC[C@]2(C(=O)O)CC[C@]3(C)C(=CC[C@@H]4[C@@]5(C)CC[C@H](O[C@@H]6OC[C@H](O)[C@H](O)[C@H]6O)[C@@](C)(CO)[C@@H]5CC[C@]43C)[C@@H]2C1 [Cauloside A] | 12% | 24% |  |  |
| NC[C@@H]1O[C@H](O[C@H]2[C@@H](O)[C@H](O[C@@H]3[C@@H](O)[C@H](N)C[C@H](N)[C@H]3O[C@H]3O[C@H](CO)[C@@H](O)[C@H](O)[C@H]3N)O[C@@H]2CO)[C@H](N)[C@@H](O)[C@@H]1O.O=S(=O)(O)O [Paromomycin (sulfate)] | 14% | 2% |  |  |
| Tannic acid | 3% | 15% |  |  |
| Cc1nc(C)c(C)nc1C.Cl [Ligustrazine (hydrochloride)] | 0% | 17% |  |  |
| CC1(C)CC[C@]2(C(=O)O)[C@H](O)C[C@]3(C)C(=CC[C@@H]4[C@@]5(C)C[C@H](O)[C@H](O[C@@H]6O[C@H](CO)[C@@H](O)[C@H](O)[C@H]6O)C(CO)(CO)[C@@H]5CC[C@]43C)[C@@H]2C1 [3-O-Beta-D-Glucopyranosylplatycodigenin] | 0% | 0% |  |  |
| C1=C2CCCN[C@H]2[C@@H]2C[C@H]1[C@H]1CCCCN1C2 [Aloperine] | 20% | 0% |  |  |
